Numbered stars: 1 amine (or outer) side, 2 acyl side, 3 side chain; on linkers, the order of the positions; unused ones are H or OH. Bridge positions count the residues as written; N and C are the ends. Square brackets hold non-standard residues; d marks the D form. Peptide text beside a SMILES is read from it. * marks the point of attachment. hPhe(3-Cl-4-CF3) = N[C@@H](CCc1ccc(C(F)(F)F)c(Cl)c1)C(=O)O; hPhe(3-F,4-CF3) = N[C@@H](CCc1ccc(C(F)(F)F)c(F)c1)C(=O)O; X49 = CN([C@@H](Cc1cccc(OC(F)(F)F)c1)C(=O)[*:2])[*:1]; NMePhe(3-CF3) = CN[C@@H](Cc1cccc(C(F)(F)F)c1)C(=O)O; NMePhe(3-Me) = CN[C@@H](Cc1cccc(C)c1)C(=O)O; NMePhe(3-F) = CN[C@@H](Cc1cccc(F)c1)C(=O)O; NMeGly(cPent) = CN[C@H](C(=O)O)C1CCCC1; NMeCha = CN[C@@H](CC1CCCCC1)C(=O)O; NMeGly(cPr) = CN[C@H](C(=O)O)C1CC1; NMeD = CN[C@@H](CC(=O)O)C(=O)O; NMeL = CN[C@@H](CC(C)C)C(=O)O; NMeV = CN[C@H](C(=O)O)C(C)C; d(β3hA) = C[C@@H](N)CC(=O)O; NMeS = CN[C@@H](CO)C(=O)O; NMeA = CN[C@@H](C)C(=O)O; Piperidide = C1CCN(*)CC1; Pra = C#CC[C@H](N)C(=O)O; dNMeA = CN[C@H](C)C(=O)O; Ac5c = NC1(C(=O)O)CCCC1; Aze = O=C(O)[C@@H]1CCN1; CH2CMe2OH = CC(C)(O)C*; Aib = CC(C)(N)C(=O)O; Isopentyl = CC(C)CC*; Sar = CNCC(=O)O
What follows are compounds tested on Human pancreatic cancer cell line AsPC-1 (G12D mutation Kras) (assay: AsPC-1 cell growth inhibition (AsPC-1 CGI)). Settings: read-out: AsPC-1 cell growth inhibition, 50% growth inhibitory concentration (IC50 value); 96 hours, CellTiter-Glo, values classified in ranges.
Format: cell-based
Method: Test compounds were serially dilated with dimethyl sulfoxide, and 200 nL was then dispensed to a U-bottom 96-well plate using Labcyte Echo. […] The cell suspension was dispensed to a. plate containing a test compound at 100 μL per well and incubated at 37° C. in a 5% carbon dioxide gas incubator. 96 hours later, 80 μL of CellTiter-Glo (Promega) was added to each well and fluorescence was measured.
For `C#CC[C@@H]1NC(=O)[C@H](CC(C)C)N(C)C(=O)C[C@@H](C)NC(=O)[C@H](CC(C)C)N(C)C(=O)C2(CCCC2)NC(=O)[C@@H]2CCCN2C(=O)[C@H](CCc2ccc(C(F)(F)F)c(F)c2)NC(=O)CN(C)C(=O)[C@H](CC2CCCCC2)N(C)C(=O)CN(C)C(=O)CN(C)C1=O` [Compound 1533] (cyclo([Ac5c][NMeL][d(β3hA)][NMeL][Pra][Sar][Sar][NMeCha][Sar][hPhe(3-F,4-CF3)]P)), the IC50 was over 500 nM.
With `CC[C@H](C)[C@@H]1NC(=O)[C@H](CC(C)C)N(C)C(=O)C[C@@H](C)NC(=O)[C@H](C(C)C)N(C)C(=O)C2(CCCC2)NC(=O)[C@@H]2CCCN2C(=O)[C@H](CCc2ccc(C(F)(F)F)c(F)c2)NC(=O)CN(C)C(=O)[C@H](CC2CCCCC2)N(C)C(=O)CN(C)C(=O)CN(C)C1=O` [Compound 1534] (cyclo([Ac5c][NMeV][d(β3hA)][NMeL]I[Sar][Sar][NMeCha][Sar][hPhe(3-F,4-CF3)]P)) the IC50 was over 500 nM.
`CC[C@H](C)[C@@H]1NC(=O)[C@H](C)N(C)C(=O)C[C@@H](C)NC(=O)[C@H](C2CCCC2)N(C)C(=O)C2(CCCC2)NC(=O)[C@@H]2CCCN2C(=O)[C@H](CCc2ccc(C(F)(F)F)c(Cl)c2)NC(=O)[C@@H](C)N(C)C(=O)[C@H](CC2CCCCC2)N(C)C(=O)CN(C)C(=O)CN(C)C1=O` [Compound 1535] (cyclo([Ac5c][NMeGly(cPent)][d(β3hA)][NMeA]I[Sar][Sar][NMeCha][dNMeA][hPhe(3-Cl-4-CF3)]P)) gave an IC50 of over 500 nM.
`CC[C@H](C)[C@@H]1NC(=O)[C@H](CC(C)C)N(C)C(=O)C[C@@H](C(=O)N2CCCCC2)N(C)C(=O)[C@H](CC(C)C)N(C)C(=O)C(C)(C)NC(=O)[C@H](COCC(C)(C)O)N(C)C(=O)[C@H](CCc2ccc(C(F)(F)F)c(Cl)c2)NC(=O)CN(C)C(=O)[C@H](COCCC(C)C)N(C)C(=O)CN(C)C(=O)CN(C)C1=O` [Compound 1541] ([NMeL]I[Sar][Sar][NMeS](Isopentyl)[Sar][hPhe(3-Cl-4-CF3)][NMeS](CH2CMe2OH)[Aib][NMeL][NMeD]-Piperidide; lactam N-11) gave an IC50 of over 500 nM.
Work on `CC[C@H](C)[C@@H]1NC(=O)[C@H](CC(C)C)N(C)C(=O)C[C@@H](C)NC(=O)[C@H](CC(C)C)N(C)C(=O)C2(CCCC2)NC(=O)[C@@H]2CCN2C(=O)[C@H](CCc2ccc(C(F)(F)F)c(F)c2)NC(=O)CN(C)C(=O)[C@H](CC2CCCCC2)N(C)C(=O)CN(C)C(=O)CN(C)C1=O` [Compound 1545] (cyclo([Ac5c][NMeL][d(β3hA)][NMeL]I[Sar][Sar][NMeCha][Sar][hPhe(3-F,4-CF3)][Aze])) yielded an IC50 of over 500 nM.
In the case of `CC[C@H](C)[C@@H]1NC(=O)[C@H](CC(C)C)N(C)C(=O)C[C@@H](C)NC(=O)[C@H](CC(C)C)N(C)C(=O)C(C)(C)NC(=O)[C@H](COCC(C)(C)O)N(C)C(=O)[C@H](CCc2ccc(C(F)(F)F)c(Cl)c2)NC(=O)CN(C)C(=O)[C@H](COCCC(C)C)N(C)C(=O)CN(C)C(=O)CN(C)C1=O` [Compound 1546] (cyclo([Aib][NMeL][d(β3hA)][NMeL]I[Sar][Sar][NMeS](Isopentyl)[Sar][hPhe(3-Cl-4-CF3)][NMeS](CH2CMe2OH))), the IC50 is reported as over 500 nM.
In the case of `CC[C@H](C)[C@@H]1NC(=O)[C@H](CC(C)C)N(C)C(=O)C[C@@H](C)NC(=O)[C@H](C(C)C)N(C)C(=O)C2(CCCC2)NC(=O)[C@@H]2CCCN2C(=O)[C@H](CCc2ccc(C(F)(F)F)c(Cl)c2)NC(=O)CN(C)C(=O)[C@H](Cc2cccc(C)c2)N(C)C(=O)CN(C)C(=O)CN(C)C1=O` [Compound 1547] (cyclo([Ac5c][NMeV][d(β3hA)][NMeL]I[Sar][Sar][NMePhe(3-Me)][Sar][hPhe(3-Cl-4-CF3)]P)), the IC50 is reported as over 500 nM.
Compound `CC[C@H](C)[C@@H]1NC(=O)[C@H](CC(C)C)N(C)C(=O)C[C@@H](C(=O)N2CCCCC2)N(C)C(=O)[C@H](C(C)C)N(C)C(=O)C2(CCCC2)NC(=O)[C@@H]2CCCN2C(=O)[C@H](CCc2ccc(C(F)(F)F)c(Cl)c2)NC(=O)CN(C)C(=O)[C@H](CC2CCCCC2)N(C)C(=O)[C@@H]2CCN2C(=O)[C@H](C2CC2)N(C)C1=O` [Compound 1553] ([NMeL]I[NMeGly(cPr)][Aze][NMeCha][Sar][hPhe(3-Cl-4-CF3)]P[Ac5c][NMeV][NMeD]-Piperidide; lactam N-11) has an IC50 of over 500 nM.
In the case of `CC[C@H](C)[C@@H]1NC(=O)[C@H](CC(C)C)N(C)C(=O)C[C@@H](C)NC(=O)[C@H](C(C)C)N(C)C(=O)C2(CCCC2)NC(=O)[C@@H]2CCCN2C(=O)[C@H](CCc2ccc(C(F)(F)F)c(Cl)c2)NC(=O)CN(C)C(=O)[C@H](Cc2cccc(F)c2)N(C)C(=O)CN(C)C(=O)CN(C)C1=O` [Compound 1556] (cyclo([Ac5c][NMeV][d(β3hA)][NMeL]I[Sar][Sar][NMePhe(3-F)][Sar][hPhe(3-Cl-4-CF3)]P)), the IC50 is reported as over 500 nM.
`CC[C@H](C)[C@@H]1NC(=O)[C@H](CC(C)C)N(C)C(=O)C[C@@H](C)NC(=O)[C@H](C(C)C)N(C)C(=O)C2(CCCC2)NC(=O)[C@@H]2CCCN2C(=O)[C@H](CCc2ccc(C(F)(F)F)c(Cl)c2)NC(=O)CN(C)C(=O)[C@H](Cc2cccc(OC(F)(F)F)c2)N(C)C(=O)CN(C)C(=O)CN(C)C1=O` [Compound 1573] (cyclo([Ac5c][NMeV][d(β3hA)][NMeL]I[Sar][Sar][X49][Sar][hPhe(3-Cl-4-CF3)]P)) gave an IC50 of over 500 nM.
`CC[C@H](C)[C@@H]1NC(=O)[C@H](CC(C)C)N(C)C(=O)C[C@@H](C)NC(=O)[C@H](C(C)C)N(C)C(=O)C2(CCCC2)NC(=O)[C@@H]2CCCN2C(=O)[C@H](CCc2ccc(C(F)(F)F)c(Cl)c2)NC(=O)CN(C)C(=O)[C@H](Cc2cccc(C(F)(F)F)c2)N(C)C(=O)CN(C)C(=O)CN(C)C1=O` [Compound 1575] (cyclo([Ac5c][NMeV][d(β3hA)][NMeL]I[Sar][Sar][NMePhe(3-CF3)][Sar][hPhe(3-Cl-4-CF3)]P)) showed an IC50 of over 500 nM.
`CC[C@H](C)[C@@H]1NC(=O)[C@H](C)N(C)C(=O)C[C@@H](C)NC(=O)[C@H](C(C)C)N(C)C(=O)C2(CCCC2)NC(=O)[C@@H]2CCCN2C(=O)[C@H](CCc2ccc(C(F)(F)F)c(Cl)c2)NC(=O)CN(C)C(=O)[C@H](CC2CCCCC2)N(C)C(=O)[C@@H]2CCN2C(=O)[C@H](C)N(C)C1=O` [Compound 1578] (cyclo([Ac5c][NMeV][d(β3hA)][NMeA]I[NMeA][Aze][NMeCha][Sar][hPhe(3-Cl-4-CF3)]P)) showed an IC50 of over 500 nM.
In the case of `CC[C@H](C)[C@@H]1NC(=O)[C@H](C)N(C)C(=O)C[C@@H](C(=O)N2CCCCC2)N(C)C(=O)[C@H](C(C)C)N(C)C(=O)C2(CCCC2)NC(=O)[C@@H]2CCCN2C(=O)[C@H](CCc2ccc(C(F)(F)F)c(Cl)c2)NC(=O)CN(C)C(=O)[C@H](CC2CCCCC2)N(C)C(=O)[C@@H]2CCN2C(=O)[C@H](CC2CCCCC2)N(C)C1=O` [Compound 1580] ([NMeA]I[NMeCha][Aze][NMeCha][Sar][hPhe(3-Cl-4-CF3)]P[Ac5c][NMeV][NMeD]-Piperidide; lactam N-11), the IC50 is reported as over 500 nM.
In the case of `CC[C@H](C)[C@@H]1NC(=O)[C@H](CC(C)C)N(C)C(=O)C[C@@H](C)NC(=O)[C@H](C(C)C)N(C)C(=O)C2(CCCC2)NC(=O)[C@@H]2CCCN2C(=O)[C@H](CCc2ccc(C(F)(F)F)c(Cl)c2)NC(=O)CN(C)C(=O)[C@H](COc2ccccc2Cl)N(C)C(=O)CN(C)C(=O)CN(C)C1=O` [Compound 1582], the IC50 is reported as over 500 nM.
